Tests used:
[1] = Ratio of drug uptake in brain to plasma in rat at 10 mg/kg, po at 6 hrs; format: ADME, organism-based; set-up: dose 10 mg/kg, route oral; settings: read-out: BPR
[2] = Drug uptake in rat brain at 10 mg/kg, po at 6 hrs; format: ADME, organism-based; set-up: dose 10 mg/kg, route oral; settings: read-out: Drug uptake
[3] = AUC (0 to 6 hrs) in rat at 10 mg/kg po; format: ADME, organism-based; set-up: time < 6 hr, dose 10 mg/kg, route oral; settings: plasma
[4] = Clearance in rat hepatocytes assessed per 10^6 cells; format: ADME, cell-based, Hepatocyte; settings: read-out: CLH
Brain = experiment: Free drug concentration in rat brain at 10 mg/kg, po at 6 hrs; format: ADME, organism-based; set-up: dose 10 mg/kg, route oral; settings: in vivo
[5] = Cmax in rat at 10 mg/kg, po at 1 hr; format: ADME, organism-based; set-up: dose 10 mg/kg, route oral; settings: in vivo
[6] = Plasma concentration in rat at 10 mg/kg, po at 6 hrs; format: ADME, organism-based; set-up: dose 10 mg/kg, route oral
[7] = Intrinsic clearance in cynomolgus monkey hepatocytes assessed per 10^6 cells; format: ADME, cell-based, Macaca fascicularis, Hepatocyte; settings: read-out: CLH
[8] = Oral bioavailability in rat at 10 mg/kg; format: ADME, organism-based; settings: in vivo
[9] = Intrinsic clearance in human hepatocytes assessed per 10^6 cells; format: ADME, cell-based, Hepatocyte; settings: read-out: CLH
[10] = Intrinsic clearance in rat hepatocytes assessed per 10^6 cells; format: ADME, cell-based, Hepatocyte; settings: read-out: CLH
[11] = Cmax in rat at 10 mg/kg, po; format: ADME, organism-based; set-up: dose 10 mg/kg, route oral; settings: in vivo
[12] = Apparent permeability across human Caco2 cells; format: ADME, cell-based; settings: Caco-2
[13] = AUC (0 to 24 hrs) in rat at 10 mg/kg po; format: ADME, organism-based; set-up: time < 24 hr, dose 10 mg/kg, route oral; settings: plasma

SMILES	Kp at 6 h [1]	concentration at 6 h [2] [nM]	AUC(0-t) at 6 h [3] [µM·h]	Drug uptake(free) (Brain) [nM]	other results
Cc1cnc(N2C[C@H]3C(=O)N(C)C(=N)N[C@@]3(c3cc(-c4cccc(C#N)c4)cs3)C2)nc1	< 0.1	232	111		
CN1C(=O)[C@@H]2CN(C(=O)c3ccccc3)C[C@]2(c2cc(-c3cccc(C#N)c3)cs2)N=C1N			0.024		
CN1C(=N)N[C@@]2(c3cc(-c4ccc(F)c(C#N)c4)cs3)CN(C(=O)c3cccc(F)c3)C[C@H]2C1=O			0.3		hepatocyte CLint [4]: 46 µL/min/1e6 cells
CC#Cc1cncc(-c2csc([C@]34CN(C(=O)c5cccc(F)c5)C[C@H]3C(=O)N(C)C(N)=N4)c2)c1			0.3		
CC#Cc1cncc(-c2csc([C@]34CN(c5cccc(OC(C)C)c5)C[C@H]3C(=O)N(C)C(N)=N4)c2)c1			3.7		
CN1C(=O)[C@@H]2CN(c3ncccn3)C[C@]2(c2cc(-c3cccc(C#N)c3)cs2)N=C1N	1	58	2	1	Cmax [5]: 1000 nM; concentration at 6 h [6]: 60 nM
CN1C(=N)N[C@@]2(c3cc(-c4cccc(C#N)c4)cs3)CN(c3ncc(F)cn3)C[C@H]2C1=O	0.1	463	31	11	hepatocyte CLint [7]: 5.7 µL/min/1e6 cells; bioavailability [8]: 97%; hepatocyte CLint [9]: 2 µL/min/1e6 cells; hepatocyte CLint [10]: 13.5 µL/min/1e6 cells; Cmax [11]: 6100 nM; Papp [12]: 15.1 ×10⁻⁶ cm/s; AUC(0-t) at 24 h [13]: 31 µM·h
CN1C(=N)N[C@@]2(c3cc(-c4cccc(C#N)c4)cs3)CN(c3ncc(Cl)cn3)C[C@H]2C1=O	0.1	965	90	4	

— ChEMBL document CHEMBL2177036, “Design and validation of bicyclic iminopyrimidinones as beta amyloid cleaving enzyme-1 (BACE1) inhibitors: conformational constraint to favor a bioactive conformation” (J Med Chem, 2012)
